Measured values taken from PubChem BioAssay AID248 (DTP/NCI, 2004).
Values joined by “and” are separate entries in the source; they are usually repeats but may differ in a detail not shown here. Equal values may be shown once. Inconclusive results and toxic doses are left out. No stated cut-off is given here; in the data, active means T/C of 150% or more; inactive means T/C below 125%.

System: L1210 leukemia ip in BDF1 mice, survival T/C
Assay: NCI In Vivo Anticancer Drug Screen. Data for tumor model L1210 Leukemia (intraperitoneal) in B6D2F1 (BDF1) mice
Conditions: endpoint: mean survival time, higher = longer survival
Procedure, shortened: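 Transplantable tumor model; survival measured in treated vs vehicle control mice. Value = treated/control.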

[1] = dose: 100.0 mg/kg/injection, schedule: Q01DX001 (ip), vehicle: saline with Tween-80
[2] = dose: 100.0 mg/kg/injection, schedule: Q04DX003 (ip), vehicle: saline with Tween-80
[3] = dose: 200.0 mg/kg/injection, schedule: Q01DX001 (ip), vehicle: saline with Tween-80
[4] = dose: 200.0 mg/kg/injection, schedule: Q04DX003 (ip), vehicle: saline with Tween-80
[5] = dose: 400.0 mg/kg/injection, schedule: Q01DX001 (ip), vehicle: saline with Tween-80
[6] = dose: 100.0 mg/kg/injection, schedule: Q01DX009 (ip), vehicle: Klucel (hydroxypropylcellulose) (HPC)
[7] = dose: 200.0 mg/kg/injection, schedule: Q01DX009 (ip), vehicle: Klucel (hydroxypropylcellulose) (HPC)
[8] = dose: 400.0 mg/kg/injection, schedule: Q01DX009 (ip), vehicle: Klucel (hydroxypropylcellulose) (HPC)
[9] = dose: 100.0 mg/kg/injection, schedule: Q04DX003 (ip), vehicle: Klucel (hydroxypropylcellulose) (HPC)
[10] = dose: 200.0 mg/kg/injection, schedule: Q04DX003 (ip), vehicle: Klucel (hydroxypropylcellulose) (HPC)
[11] = dose: 400.0 mg/kg/injection, schedule: Q04DX003 (ip), vehicle: Klucel (hydroxypropylcellulose) (HPC)
[12] = dose: 100.0 mg/kg/injection, schedule: Q01DX009 (ip), vehicle: saline with Tween-80
[13] = dose: 200.0 mg/kg/injection, schedule: Q01DX009 (ip), vehicle: saline with Tween-80
[14] = dose: 12.5 mg/kg/injection, schedule: Q01DX009 (ip), vehicle: Klucel (hydroxypropylcellulose) (HPC)
[15] = dose: 25.0 mg/kg/injection, schedule: Q01DX009 (ip), vehicle: Klucel (hydroxypropylcellulose) (HPC)
[16] = dose: 50.0 mg/kg/injection, schedule: Q01DX009 (ip), vehicle: Klucel (hydroxypropylcellulose) (HPC)
[17] = dose: 100.0 mg/kg/injection, schedule: Q01DX001 (ip), vehicle: saline
[18] = dose: 200.0 mg/kg/injection, schedule: Q01DX001 (ip), vehicle: saline
[19] = dose: 400.0 mg/kg/injection, schedule: Q01DX001 (ip), vehicle: saline

Measured: T/C

CN(CCC#N)c1ccc(/C=C(\C#N)C(N)=O)cc1
inactive: [1] 102 % of control | [2] 92 % of control and 93 % of control | [3] 102 % of control | [4] 100 % of control and 90 % of control | [5] 89 % of control | dose: 400.0 mg/kg/injection, schedule: Q04DX003 (ip), vehicle: saline with Tween-80 98 % of control and 90 % of control

CC(=O)c1c(C)c([N+](=O)[O-])c(C(C)(C)C)c([N+](=O)[O-])c1C
inactive: [6] 100 % of control | [7] 97 % of control | [8] 96 % of control

C[N+](C)(C)CCOC(=O)c1ccccc1CCl
inactive: dose: 100.0 mg/kg/injection, schedule: Q04DX002 (ip), vehicle: saline with Tween-80 98 % of control | dose: 200.0 mg/kg/injection, schedule: Q04DX002 (ip), vehicle: saline with Tween-80 102 % of control

ClCc1c(Cl)c(Cl)c(Cl)c(CCl)c1Cl
inactive: [6] 98 % of control | [9] 96 % of control | [7] 96 % of control | [10] 98 % of control | [11] 102 % of control

OC1C(Cl)(Cl)CCCC1(Cl)Cl
inactive: dose: 50.0 mg/kg/injection, schedule: Q01DX009 (ip), vehicle: saline with Tween-80 90 % of control | [12] 94 % of control | [13] 98 % of control

CN1C(=O)CN=C(c2ccccc2)c2cc(Cl)ccc21
inactive: [14] 97 % of control | [15] 95 % of control | dose: 25.0 mg/kg/injection, schedule: Q04DX003 (ip), vehicle: Klucel (hydroxypropylcellulose) (HPC) 93 % of control | [16] 100 % of control | dose: 50.0 mg/kg/injection, schedule: Q04DX003 (ip), vehicle: Klucel (hydroxypropylcellulose) (HPC) 93 % of control | [6] 100 % of control and 103 % of control | [9] 110 % of control and 93 % of control | [7] 100 % of control and 97 % of control | [10] 102 % of control and 110 % of control | [8] 100 % of control | [11] 88 % of control

CCN(CC)CCOC(=O)N(c1ccccc1)c1ccccc1
inactive: dose: 6.25 mg/kg/injection, schedule: Q01DX009 (ip), vehicle: saline 103 % of control | dose: 12.5 mg/kg/injection, schedule: Q01DX009 (ip), vehicle: saline 106 % of control | dose: 25.0 mg/kg/injection, schedule: Q01DX009 (ip), vehicle: saline 104 % of control | dose: 25.0 mg/kg/injection, schedule: Q04DX003 (ip), vehicle: saline 92 % of control | dose: 50.0 mg/kg/injection, schedule: Q01DX009 (ip), vehicle: saline 95 % of control | dose: 50.0 mg/kg/injection, schedule: Q04DX003 (ip), vehicle: saline 103 % of control | dose: 100.0 mg/kg/injection, schedule: Q01DX009 (ip), vehicle: saline 100 % of control | dose: 100.0 mg/kg/injection, schedule: Q04DX003 (ip), vehicle: saline 103 % of control

O=N/C=C/C(=N/Nc1ccc(C(=O)O)cc1)[N+](=O)[O-]
inactive: [17] 101 % of control | [18] 93 % of control | [19] 93 % of control

COC1CC(NC(=O)N(C)N=O)C(O)C(C)O1 (centres undefined)
inactive: dose: 400.0 mg/kg/injection, schedule: Q04DX003 (ip), vehicle: saline 106 % of control | dose: 500.0 mg/kg/injection, schedule: Q04DX003 (ip), vehicle: saline 101 % of control

CCC1([N+](=O)[O-])COP(=O)(OP2(=O)OCC(CC)([N+](=O)[O-])CO2)OC1 (centres undefined)
inactive: [17] 116 % of control | [18] 97 % of control | [19] 100 % of control

Cc1ccc(C(C)(C)C)c(OCC2=NCCN2)c1
inactive: dose: 10.0 mg/kg/injection, schedule: Q04DX003 (ip), vehicle: Klucel (hydroxypropylcellulose) (HPC) 96 % of control | [14] 86 % of control | dose: 20.0 mg/kg/injection, schedule: Q04DX003 (ip), vehicle: Klucel (hydroxypropylcellulose) (HPC) 90 % of control | [15] 96 % of control | dose: 40.0 mg/kg/injection, schedule: Q04DX003 (ip), vehicle: Klucel (hydroxypropylcellulose) (HPC) 96 % of control | [16] 104 % of control

O=C1CSSCC(=O)NCCN1
inactive: dose: 100.0 mg/kg/injection, schedule: Q04DX002 (ip), vehicle: Klucel (hydroxypropylcellulose) (HPC) 93 % of control and 96 % of control | dose: 200.0 mg/kg/injection, schedule: Q04DX002 (ip), vehicle: Klucel (hydroxypropylcellulose) (HPC) 93 % of control and 96 % of control | dose: 400.0 mg/kg/injection, schedule: Q04DX002 (ip), vehicle: Klucel (hydroxypropylcellulose) (HPC) 93 % of control and 96 % of control

Cc1cc(N(CCCOS(C)(=O)=O)CCCOS(C)(=O)=O)ccc1C=Nc1cccc(Br)c1
inactive: [12] 96 % of control | [13] 94 % of control | dose: 400.0 mg/kg/injection, schedule: Q01DX009 (ip), vehicle: saline with Tween-80 91 % of control

CCOc1ccc(NC(=O)CCC(=O)O)cc1
inactive: [6] 91 % of control | [7] 93 % of control | [8] 91 % of control

COC(=O)/C(C#N)=C\c1ccccc1
inactive: [2] 95 % of control | [4] 101 % of control

O=C1N(Br)C(=O)C(c2ccc(Cl)cc2)(c2ccc(Cl)cc2)N1Br
inactive: dose: 15.0 mg/kg/injection, schedule: Q01DX015 (ip), vehicle: carboxymethylcellulose (CMC) 89 % of control | dose: 30.0 mg/kg/injection, schedule: Q01DX015 (ip), vehicle: carboxymethylcellulose (CMC) 93 % of control | dose: 60.0 mg/kg/injection, schedule: Q01DX015 (ip), vehicle: carboxymethylcellulose (CMC) 88 % of control | dose: 100.0 mg/kg/injection, schedule: Q01DX001 (ip), vehicle: carboxymethylcellulose (CMC) 95 % of control | dose: 100.0 mg/kg/injection, schedule: Q01DX009 (ip), vehicle: saline sonified 113 % of control | [9] 99 % of control | dose: 120.0 mg/kg/injection, schedule: Q01DX015 (ip), vehicle: carboxymethylcellulose (CMC) 93 % of control | dose: 200.0 mg/kg/injection, schedule: Q01DX001 (ip), vehicle: carboxymethylcellulose (CMC) 90 % of control | dose: 200.0 mg/kg/injection, schedule: Q01DX009 (ip), vehicle: saline sonified 106 % of control | [10] 94 % of control | dose: 240.0 mg/kg/injection, schedule: Q01DX015 (ip), vehicle: carboxymethylcellulose (CMC) 95 % of control | dose: 360.0 mg/kg/injection, schedule: Q01DX015 (ip), vehicle: carboxymethylcellulose (CMC) 98 % of control | dose: 400.0 mg/kg/injection, schedule: Q01DX001 (ip), vehicle: carboxymethylcellulose (CMC) 104 % of control | dose: 400.0 mg/kg/injection, schedule: Q01DX009 (ip), vehicle: saline sonified 99 % of control | [11] 100 % of control

NC(=S)Nc1ccccc1Cl
inactive: [17] 103 % of control | [18] 101 % of control

O=C1OC(c2ccccc2)=C/C1=C\c1[nH]c(=S)[nH]c(=O)c1Cc1ccc(Cl)cc1
inactive: [1] 102 % of control | [3] 89 % of control | [5] 90 % of control

O=[N+]([O-])c1ccc(N/N=C/c2ccccc2)cc1
inactive: dose: 15.0 mg/kg/injection, schedule: Q01DX Z (ip), vehicle: carboxymethylcellulose (CMC) 91 % of control | dose: 30.0 mg/kg/injection, schedule: Q01DX Z (ip), vehicle: carboxymethylcellulose (CMC) 100 % of control | dose: 60.0 mg/kg/injection, schedule: Q01DX Z (ip), vehicle: carboxymethylcellulose (CMC) 94 % of control and 100 % of control | dose: 120.0 mg/kg/injection, schedule: Q01DX Z (ip), vehicle: carboxymethylcellulose (CMC) 94 % of control and 97 % of control | dose: 240.0 mg/kg/injection, schedule: Q01DX Z (ip), vehicle: carboxymethylcellulose (CMC) 97 % of control | dose: 480.0 mg/kg/injection, schedule: Q01DX Z (ip), vehicle: carboxymethylcellulose (CMC) 100 % of control

CC(C)C(=O)/C=C/c1ccc(Cl)cc1
inactive: dose: 100.0 mg/kg/injection, schedule: Q04DX002 (ip), vehicle: gum acacia 95 % of control | dose: 200.0 mg/kg/injection, schedule: Q04DX002 (ip), vehicle: gum acacia 92 % of control | dose: 400.0 mg/kg/injection, schedule: Q04DX002 (ip), vehicle: gum acacia 92 % of control

OCCNc1nc2ccccc2c2ccccc12
inactive: dose: 75.0 mg/kg/injection, schedule: Q01DX001 (ip), vehicle: carboxymethylcellulose (CMC) 98 % of control | dose: 150.0 mg/kg/injection, schedule: Q01DX001 (ip), vehicle: carboxymethylcellulose (CMC) 112 % of control
